Test results: patent US20260137634A1, “USE OF STILBENE DERIVATIVE IN PREVENTION AND/OR TREATMENT OF ULCERS” (THEDERMA SHANGHAI CO., LTD., priority 2022, published 2026)

Columns and labels:
[1] = test system: SD male rat oral ulcer model; test: Efficacy in SD male rat oral ulcer model after 7 days of treatment; assay type: in vivo; conditions: SD male rats; for Ulcer healing rate / Ulcer area Day 7: 1 mg/rat; for Ulcer healing rate: 2 times daily for 7 days; for Ulcer healing rate / Ulcer area Day 7 / Ulcer area Day 0: n = 6; for Ulcer area Day 7: 50 μL applied to ulcer 2 times daily for 7 days; for Ulcer area Day 0: glacial acetic acid oral ulcer, Day 0 (baseline)
Protocol: Eighteen SD male rats were randomly divided into 3 groups, i.e., a model group (propylene glycol vehicle group), a 2% indigo group (1 mg/rat), and a 2% tapinarof group (1 mg/rat). Oral ulcer modeling: a 1 cm×0.6 cm filter paper (soaked into a 60% glacial acetic acid solution) was placed on the labial mucosa of the alveolar bone beneath the lower incisor in a rat and maintained for 1 min. Administration: after the rats were anesthetized, 50 μL of the solution in each group was pipetted by using a pipettor and evenly applied to the ulcer part 2 times daily for 7 consecutive days. After each group was treated with glacial acetic acid, symptoms such as pseudomembrane covering, central depression, red and swollen edges, significant pain response after stimulation, etc. appeared, and after the administration was completed, various symptoms were relieved.

[2] = test system: DB/DB male mouse diabetic foot ulcer model; test: Efficacy in DB/DB male mouse diabetic foot ulcer model after 10 days of treatment; assay type: in vivo; conditions: DB/DB male mice; for Ulcer healing rate / Ulcer area Day 10: 1 mg/mouse; for Ulcer healing rate: 2 times daily for 10 days, ** p<0.05 vs vehicle; for Ulcer healing rate / Ulcer area Day 10 / Ulcer area Day 0: n = 6; for Ulcer area Day 10: 50 μL applied to ulcer 2 times daily for 10 days; for Ulcer area Day 0: foot ulcer, Day 0 (baseline)
Protocol: Eighteen DB/DB male mice were randomly divided into 3 groups, i.e., a model group (propylene glycol vehicle group), a 2% indigo group (1 mg/mouse), and a 2% tapinarof group (1 mg/mouse).
Foot ulcer modeling: after the mouse was anesthetized, the foot was disinfected; a 4 mm×5 mm rectangular region was marked on the dorsum of the foot; and the skin and fascia were removed within the region.
Administration: on the dorsum of the foot of the mouse, 50 μL of the solution in each group was pipetted by using a pipettor and evenly applied to the ulcer part 2 times daily for 10 consecutive days, and the length and the width of the ulcer were recorded.
Statistical analysis was performed by using one-way ANOVA. As compared to the vehicle group, ** indicates p<0.05.

| Compound | Ulcer healing rate [1] [%] | Ulcer area Day 7 [1] [mm^2] | Ulcer area Day 0 [1] [mm^2] | Ulcer healing rate [2] | Ulcer area Day 10 [2] [mm^2] | Ulcer area Day 0 [2] [mm^2] | therapeutic effect in rat oral ulcer model (in words) ([1]; 7 days of treatment) | effect in mouse diabetic foot ulcer model (in words) ([2]; after 10 days of administration) |
| --- | --- | --- | --- | --- | --- | --- | --- | --- |
| O=C1/C(=C2\Nc3ccccc3C2=O)Nc2ccccc21 [2% indigo, indigo, reference compound] | 52 | 22.09 | 46.33 | 26% | 13.30 | 17.99 |  |  |
| CC(C)c1c(O)cc(/C=C/c2ccccc2)cc1O [2% tapinarof, tapinarof] | 58 | 19.70 | 46.90 | 39%** | 10.93 | 18.19 | good therapeutic effect, and its efficacy was superior to that of 2% indigo | significant inhibitory effect, which was superior to that of the 2% indigo group |
